In PMC5906745, “Silencing of Chemosensory Protein Gene NlugCSP8 by RNAi Induces Declining Behavioral Responses of Nilaparvata lugens” (Frontiers in Physiology, 2018):
Like-named read-outs stand apart in the source and are kept apart here.

Key:
[1] = biological target: T1, NlugCSP8 (Nilaparvata lugens, UniProt B7TVH4); test: Fluorescence competitive ligand binding assay with 1-NPN probe
Description: The recombinant pET-30a/CSP8 expression plasmid was transformed into Escherichia coli BL21 (DE3) competent cells. After DNA sequencing, a single positive clone was grown in 10 mL Luria-Bertani (LB) medium containing kanamycin (50 μg/mL) with shaking overnight at 220 rpm and 37°C. The culture was diluted to 2 L LB medium (supplemented with 50 μg/mL kanamycin) and grown at 37°C with shaking at 220 rpm until the culture reached the optical density value of ~0.6–0.7 at 600 nm. The recombinant protein expression was induced by the addition of 2 mM IPTG (Isopropyl β-D-1-thiogalactopyranoside), followed by culturing for 4 h at 37°C. The bacterial cells were harvested by centrifugation (10,000 rpm, 10 min) and sonicated. The expressed protein presented in the supernatant as a soluble form. Then, NlugCSP8 purification was performed using a Ni-ion affinity chromatography column (GE Healthcare, Uppsala, Sweden). His-tag was removed from the recombinant protein with the addition of recombinant bovine enterokinase (EK) in the eluted fractions of protein, followed by 16 h incubation at 25°C. After running the digested protein back through the Ni-ion affinity chromatography column, the tag-free protein was obtained in the flow through fraction. Protein expression and purification steps were assessed by 15% SDS-PAGE (sodium dodecyl sulfate-polyacrylamide gel electrophoresis). Finally, purified protein was dialyzed in Tris buffer (pH 5.0) and (pH 7.4). The concentration of purified protein was determined prior to perform ligand-binding specificities of NlugCSP8 with 25 selected ligands at pH 5.0 and pH 7.4.
Fluorescence-based ligand binding assays were performed based on the method described by Sun X. et al. ([2016]). According to previous studies about the rice-specific volatiles (Fujii et al., [2010]; He et al., [2011]; Yang et al., [2014]; Zhang et al., [2014]), 25 potential ligands were selected for the fluorescence binding assays (Table 1). All the ligands used in this study were purchased from Sigma-Aldrich (St. Louis, MO, USA) and stored according to manufacturer instructions. The ligand binding affinity for various ligands was determined by using the 1-NPN (N-phenyl-1-naphthylamine) as a fluorescent probe. RF-5301PC fluorimeter (Shimadzu, Kyoto, Japan) was used for fluorescence binding assay at 25°C with 10 nm slit width and 1 cm light path quartz cuvette for emission and excitation. The 1-NPN/NlugCSP8 mixture was excited using an excitation wavelength of 337 nm, and the fluorescence intensity was recorded between 350 and 600 nm following an established protocol (Ban et al., [2002]). The 1-NPN and all the potential ligands were prepared in spectrophotometric-grade methanol. The binding constant for 1-NPN was measured by adding aliquots of 1 mM 1-NPN into a 2 μM solution of protein in 30 mM Tris-HCL at room temperature. […] For each test, fluorescence measurement was conducted after the reaction was incubated for 2 min at room temperature (Liu et al., [2015]). Three independent measurements were used to obtain the binding data. 1-NPN/NlugCSP8 dissociation constants (Kd) were calculated from Scatchard plots of the binding data using the Prism 5 software (GraphPad, La Jolla, CA, USA). The curves were linearized using the Scatchard plot program (Campanacci et al., [2001]). The dissociation constants of the competitors were determined by using the corresponding IC50-values according to the equation Ki = [IC50]/ (1+[1-NPN]/K1−NPN), where IC50 represents the concentration of ligand which decreases the fluorescence intensity of [1-NPN], [1-NPN] is the free concentration of 1-NPN and K1−NPN is the dissociation constant of the NlugCSP8/1-NPN complex (Ban et al., [2003]; Tian and Zhang, [2016]). For the reader's convenience, data were recalculated as 1/ki × 1,000, for which a larger value designates a stronger ligand binding affinity.

[2] = system: Nilaparvata lugens; test: H-tube olfactometer assay after RNAi (dsRNA-injected BPH); type: in vivo; conditions: 10 μl/mL (nerolidol), 100 μl/mL (hexanal); compared with controls
Description: BPH behavior responses to different ligands were tested in an H-tube olfactometer similar to which previously used by Yi et al. ([2018]) in our laboratory. The H-tube olfactometer mainly consists of two glass tubes (arms) with gauze at its top end. These two glass tubes were connected by another tube (5 cm in diameter, 20 cm long with a hole of 1 cm in the middle for releasing BPH). Twenty macropterous (10 from each sex) BPH adults were introduced into the H-tube and the number of BPH was counted at 30 min after their introduction. Liquid paraffin was used as in control arm. Rubber septa were absorbed in the liquid paraffin and solutions of the odor molecules to be tested (liquid paraffin+ different concentration of tested volatile) and placed at room temperature. After 24 h, one rubber septa from each control and tested volatile was put in each glass arm. After one replication, rubber septa were changed and three treatments (1, 10, and 100 μl/mL) of tested volatiles against macropterous adults were tested in eight replications. […] In order to evaluate the best RNAi effect, mRNA levels of NlugCSP8-dsRNA injected insects were determined and compared with the GFP-dsRNA-injected and non-injected insects, prior to H-tube olfactometer bioassay. […]

[3] = system: NlugCSP7; design: method as in Yang et al., 2014; conditions: ref Yang et al., 2014; cited from earlier work
[4] = system: Nilaparvata lugens; test: H-tube olfactometer behavioral assay; type: in vivo; conditions: macropterous adults, vs liquid paraffin
Description: BPH behavior responses to different ligands were tested in an H-tube olfactometer similar to which previously used by Yi et al. ([2018]) in our laboratory. The H-tube olfactometer mainly consists of two glass tubes (arms) with gauze at its top end. These two glass tubes were connected by another tube (5 cm in diameter, 20 cm long with a hole of 1 cm in the middle for releasing BPH). Twenty macropterous (10 from each sex) BPH adults were introduced into the H-tube and the number of BPH was counted at 30 min after their introduction. Liquid paraffin was used as in control arm. Rubber septa were absorbed in the liquid paraffin and solutions of the odor molecules to be tested (liquid paraffin+ different concentration of tested volatile) and placed at room temperature. After 24 h, one rubber septa from each control and tested volatile was put in each glass arm. After one replication, rubber septa were changed and three treatments (1, 10, and 100 μl/mL) of tested volatiles against macropterous adults were tested in eight replications. After four replications, the H-tube olfactometer was washed with 75% alcohol and the liquid paraffin rubber septa were placed in another arm to complete the other four replications. The impact of NlugCSP8-dsRNA on the preference of N. lugens was also tested by H-tube olfactometer assays. Corresponding control experiments without dsRNA injection were performed to investigate whether the preference of N. lugens was affected by volatile concentration change. Three treatments of BPH (NlugCSP8-dsRNA injected, GFP-dsRNA injected, and without injection) were tested in four replications. As in case of dsRNA injected insects, the concentration of volatiles that have highly significant attractive results on non-injected insects used for dsCSP8 and dsGFP injected insects. In order to evaluate the best RNAi effect, mRNA levels of NlugCSP8-dsRNA injected insects were determined and compared with the GFP-dsRNA-injected and non-injected insects, prior to H-tube olfactometer bioassay. Based on the findings of previous step, we re-inject the BPH and the individuals with the best post-injection RNAi effect after 7-days, were used in the H-tube olfactometer bioassay. Bioassays were performed under controlled conditions at 26 ± 2°C and 75 ± 5% relative humidity.

[5] = biological target: T1, NlugCSP8; test: Titration of NlugCSP8 with 1-NPN (Scatchard plot); type: binding; conditions: read-out: dissociation constant
Description: Fluorescence-based ligand binding assays were performed based on the method described by Sun X. et al. ([2016]). According to previous studies about the rice-specific volatiles (Fujii et al., [2010]; He et al., [2011]; Yang et al., [2014]; Zhang et al., [2014]), 25 potential ligands were selected for the fluorescence binding assays (Table 1). All the ligands used in this study were purchased from Sigma-Aldrich (St. Louis, MO, USA) and stored according to manufacturer instructions. The ligand binding affinity for various ligands was determined by using the 1-NPN (N-phenyl-1-naphthylamine) as a fluorescent probe. RF-5301PC fluorimeter (Shimadzu, Kyoto, Japan) was used for fluorescence binding assay at 25°C with 10 nm slit width and 1 cm light path quartz cuvette for emission and excitation. The 1-NPN/NlugCSP8 mixture was excited using an excitation wavelength of 337 nm, and the fluorescence intensity was recorded between 350 and 600 nm following an established protocol (Ban et al., [2002]). The 1-NPN and all the potential ligands were prepared in spectrophotometric-grade methanol. The binding constant for 1-NPN was measured by adding aliquots of 1 mM 1-NPN into a 2 μM solution of protein in 30 mM Tris-HCL at room temperature. […] For each test, fluorescence measurement was conducted after the reaction was incubated for 2 min at room temperature (Liu et al., [2015]). […]

[6] = pH 5.0, calculated from IC50, read-out: Ki
[7] = pH 7.4, calculated from IC50, read-out: Ki
[8] = Ki, pH 5.0, calculated from IC50
[9] = Ki, pH 7.4, calculated from IC50

T1 sequence (B7TVH4 entry or part of it): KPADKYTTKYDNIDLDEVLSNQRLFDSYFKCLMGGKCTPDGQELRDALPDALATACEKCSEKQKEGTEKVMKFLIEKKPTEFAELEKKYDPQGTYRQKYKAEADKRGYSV

Row | Molecule | Ki [1, 6] [µM] | IC50 ([1]; pH 5.0, read-out: IC50) [µM] | Ki [1, 7] [µM] | IC50 ([1]; pH 7.4, read-out: IC50) [µM] | IC50 ([1]; IC50, pH 5.0) [µM] | IC50 ([1]; IC50, pH 7.4) [µM] | Ki [1, 8] [µM] | Ki [1, 9] [µM] | also measured
1 | C=CC(C)(O)CCC=C(C)CCC=C(C)C (mixture of isomers) [Nerolidol] | 8.38 | 9.61 | 10 | 12 | – | – | – | – | behavior response of dsCSP8-injected (RNAi) BPH to attractant [2]: attraction activity was completely lost and lost; binding affinity with NlugCSP7 [3]: weak affinities; behavioral response of BPH ([4]; 10 μl/mL): significant attraction
2 | CC1=CCC2C(C1)C2(C)C (single isomer, unassigned; (+)) [(+)-3-Carene] | 34.8 | 39.9 | 27 | 32.4 | – | – | – | – | –
3 | c1ccc(Nc2cccc3ccccc23)cc1 [1-NPN, N-phenyl-1-naphthylamine] | – | – | – | – | – | – | – | – | Kd ([5]; pH 5.0): 6.8 µM; Kd ([5]; pH 7.4): 4.99 µM
4 | C=CC(O)CCCCC (stereo not shown) [1-Octen-3-ol] | 19.2 | 22.1 | 19.4 | 23.3 | – | – | – | – | –
5 | CCCCCC(C)O (stereo not shown) [2-Heptanol] | 9.77 | 11.2 | 13.8 | 16.5 | – | – | – | – | behavioral response of BPH ([4]; concentration not given): significant aversion
6 | CCC(O)CC [3-Pentanol] | 27.4 | 31.4 | 19.6 | 23.5 | – | – | – | – | –
7 | Cc1ccc(C(C)C)cc1 [4-Isopropyl to luene] | – | – | – | – | 22.7 | 20.3 | 19.8 | 16.9 | –
8 | CC1=CC[C@](O)(C(C)C)CC1 [(–)-Terpinen-4-ol] | – | – | – | – | 11.4 | 19 | 9.97 | 15.8 | behavioral response of BPH ([4]; 1 μl/mL): attractive; behavioral response of BPH ([4]; 10 μl/mL): attractive
9 | CC/C=C\CCO [Cis-3-hexen-1-ol] | – | – | – | – | 38 | 27.5 | 33.1 | 22.9 | –
10 | OC1CCCCC1 [Cyclohexanol] | – | – | – | – | 95.5 | 51.2 | 83.3 | 42.7 | –
11 | CCCCCCCCCCCC=O [Dodecyl aldehyde] | 28.4 | 32.6 | 12.2 | 14.6 | – | – | – | – | –
12 | CCCCCCCCCCCCCCCCCCCC [Eicosane] | 12.2 | 14 | 12.4 | 14.9 | – | – | – | – | –
13 | CCCCCCCCCCCCCCCC [Hexadecane] | 23.8 | 27.3 | 15.9 | 19 | – | – | – | – | –
14 | C=CC(C)(O)CCC=C(C)C (stereo not shown) [Linalool] | – | – | – | – | 36.9 | 23.4 | 32.2 | 19.5 | –
15 | COC(=O)c1ccccc1 [Methyl benzoate] | – | – | – | – | 17.8 | 23.6 | 15.5 | 19.6 | –
16 | CCCCCCCCCCCCCCCCCCC [Nonadecane] | 24.6 | 28.3 | 14.3 | 17.2 | – | – | – | – | –
17 | C=C(C)[C@H]1CC=C(C)CC1 [R-(+)-limonene] | 12.6 | 14.4 | 13.2 | 15.9 | – | – | – | – | –
18 | CC1=CCC(=C(C)C)CC1 [Terpinolene] | – | – | – | – | 31.2 | 25.6 | 27.2 | 21.3 | –
19 | CCC/C=C/CO [Trans-2-hexen-1-ol] | – | – | – | – | 18.2 | 25.9 | 15.9 | 21.5 | –
20 | CCC/C=C/C=O [Trans-2-hexenal] | – | – | – | – | 11.6 | 28 | < 10 | 23.3 | behavioral response of BPH ([4]; concentration not given): significant aversion
21 | CC1=CC=C(C(C)C)CC1 [α-Terpinene] | – | – | – | – | 16.4 | 16.6 | 14.3 | 13.8 | –
22 | CC1=CC[C@@H](C(C)(C)O)CC1 [α-Terpineol] | – | – | – | – | 15.5 | 24.1 | 13.5 | 20.1 | –
23 | (–)-Limoonene | 17.8 | 20.4 | 20.4 | 24.4 | – | – | – | – | –
24 | Farnesene | 173 | 199 | 44.8 | 53.8 | – | – | – | – | Ki ([1]; pH 5.0, calculated from IC50, listed as farnesene, read-out: Ki): > 40 µM; Ki ([1]; pH 7.4, calculated from IC50, listed as farnesene, read-out: Ki): > 40 µM
